pIC50: −log10 of the molar value.
How the values were obtained:
HeLa DR13-9 cell line = assay: I-SceI reporter assay, homology-directed repair (HDR); format: cell-based, Human; conditions: Gem 250 nM and/or EPZ015666 500 nM, 24 hours
Description: (§1) NHEJ and HR assays to examine the repair efficiency of I-SceI inducible-double strand breaks (DSBs) were performed using NHEJ/DsRed293B and HeLa DR13-9 cell lines, respectively, as previously described with slight modifications. Briefly, 3×10^5 cells were plated on 6-well dishes and 2 μg I-SceI expression vector […] was transfected using Lipofectamine2000 (Invitrogen). 24 hours post-transfection, the indicated amount of gemcitabine and/or EPZ015666 was incubated with cells for 24 hours. The DsRed- and GFP-expressing cells were counted in flow cytometric analysis (BD FACS Calibur and CellQuest Pro) by the FL2 and FL1 channels for NHEJ and HR repair efficiency, respectively. […] To this end, we used I-SceI endonuclease-based genetic reporters where relative efficiency of DSB repair by either pathway could be robustly quantified. […] However, exogenous expression of I-SceI leads to a DSB repair and creation of either dsRED+ or GFP+ cells, which can be quantified to assess relative NHEJ or HDR repair efficiencies by quantifying the percentage of dsRED+ or GFP+ cells upon I-SceI expression. […] We then assessed whether PRMT5 inhibitor alone or in combination with Gem results in differential NHEJ activity. […]

xenograft tumors = assay: γ-H2AX and SDMA levels in extracted tumor tissues (IHC, Western blot); format: in vivo, mice
Description: Cells were washed with cold PBS and lysed in RIPA buffer (Cell Signaling Technology). After centrifugation at 14,000 rpm for 15 minutes at 4° C., the supernatants were collected and the protein concentrations were measured using BCA protein assay reagent (BIO-RAD). Subsequently, equal amounts of proteins were separated in NuPAGE 4-12% Bis-Tris gradient gel (Invitrogen #NP0335) and transferred onto nitrocellulose membranes (Invitrogen #B301002). After blocking with 5% milk, the membranes were then probed at 4° C. overnight with various primary antibodies: anti-γ-H2AX (Cell Signaling), anti-phospho-Chk1 (Ser345) (Cell Signaling), anti-phospho-Chk2 (Thr68) (Cell Signaling), anti-PRMT5 (Abcam), anti-RPA1 (Abcam), anti-phospho-RPA2 (S4/S8) (Bethyl Laboratories), anti-RPA2 (Ab-2) (Calbiochem), cleaved caspase-3 (Cell Signaling), and anti-β-actin (Sigma); washed with TBST (20 mM Tris, 150 mM NaCl, 0.1% polysorbate 20; pH 7.6); and incubated with horseradish peroxidase (HRP)-conjugated secondary antibodies (Promega) at room temperature for 1 hour. Finally, after washing with TBST, the antibody-bound membranes were treated with enhanced chemiluminescent Western blot detection reagents (GE Healthcare) and visualized with an x-ray film (GE Healthcare). We also extracted tumors to analyze their morphology and molecular structure through H&E and IHC for selected markers. […] To assess whether the combination treatment abolished PRMT5 function in vivo, we evaluated the overall levels of the γ-H2AX and the symmetric […] of arginine (SDMA) in WT tumors, PRMT5 KO tumors as well as single-agent and combination-treated WT tumors.

WT and PRMT5 KO cells = assay: Western blot of Caspase-3 cleavage (apoptosis) in WT and PRMT5 KO cells; format: cell-based, Human; conditions: WT vs PRMT5 KO cells, increasing doses (nM)
Description: (§2) Cells were washed with cold PBS and lysed in RIPA buffer (Cell Signaling Technology). After centrifugation at 14,000 rpm for 15 minutes at 4° C., the supernatants were collected and the protein concentrations were measured using BCA protein assay reagent (BIO-RAD). Subsequently, equal amounts of proteins were separated in NuPAGE 4-12% Bis-Tris gradient gel (Invitrogen #NP0335) and transferred onto nitrocellulose membranes (Invitrogen #B301002). After blocking with 5% milk, the membranes were then probed at 4° C. overnight with various primary antibodies: anti-γ-H2AX (Cell Signaling), anti-phospho-Chk1 (Ser345) (Cell Signaling), anti-phospho-Chk2 (Thr68) (Cell Signaling), anti-PRMT5 (Abcam), anti-RPA1 (Abcam), anti-phospho-RPA2 (S4/S8) (Bethyl Laboratories), anti-RPA2 (Ab-2) (Calbiochem), cleaved caspase-3 (Cell Signaling), and anti-β-actin (Sigma); washed with TBST (20 mM Tris, 150 mM NaCl, 0.1% polysorbate 20; pH 7.6); and incubated with horseradish peroxidase (HRP)-conjugated secondary antibodies (Promega) at room temperature for 1 hour. Finally, after washing with TBST, the antibody-bound membranes were treated with enhanced chemiluminescent Western blot detection reagents (GE Healthcare) and visualized with an x-ray film (GE Healthcare).

NHEJ/DsRed293B cell line = assay: I-SceI reporter assay, NHEJ; format: cell-based, Human; conditions: Gem 250 nM and/or EPZ015666 500 nM, 24 hours
Description: as §1

PRMT5 = assay: Western blot of global SDMA in cells; format: cell-based, Human; conditions: increasing concentrations (nM)
Description: as §2

mPanc96 and PANC-1 cells = assay: Crystal violet colony formation assay; format: cell-based, Human
Description: Pancreatic cancer cells were seeded in a flat-bottom 12-well plate (Corning) at a density of 1-2×10^3 cells per well. The following day, cells were treated with gemcitabine and EPZ015666 or EPZ015938 for two weeks. Culture media were replaced every week with fresh medium in the presence of drugs. Wells were washed with PBS, then stained for 30 min with crystal violet solution (0.4% crystal violet, 10% formaldehyde, 80% methanol). After staining, wells were washed once with PBS and water. The plate was dried out overnight and imaged using a scanner. Colonies were measured and analyzed with ImageJ (National Institutes of Health).

mPanc96 cells [1] = assay: Comet assay (DNA strand breaks); format: cell-based, Human; conditions: PRMT5 KO or PRMT5-inhibited cells treated with Gem vs WT and control-treated cells
Description: The comet assay measures DNA damage in individual cells. It was performed according to the instructions of the OxiSelect Comet Assay Kit (Cell Biolabs). Briefly, microscope slides were first covered with a normal melting point agarose to create a base layer. Then, 1-2×10^5 cells were embedded into 75 μL of low-melting-point agarose at 37° C. and the gel was cast over the first agarose layer. Then slides were immersed into a lysis buffer and kept for 1 hour at 4° C. After cell lysis, the slides were electrophoresed in alkaline electrophoresis buffer (300 mM NaOH, 1 mM EDTA, pH 13). The slides were then stained with Vista Green DNA dye. Comet tails were measured using Image J.

PDAC cells = assay: Western blot of DNA damage and cell cycle checkpoint markers and RPA2; format: cell-based, Human; conditions: time-course, KO cells compared to WT cells
Description: as §2

[2] = test system: WT and PRMT5 KO mPanc96 tumors; assay: Xenograft of WT and PRMT5 KO mPanc96 cells treated with Gem; format: in vivo, nude mice; conditions: Gem 50 mg/kg or 100 mg/kg i.p.
Description: To develop xenograft tumors, Control sgRNA infected WT cells and PRMT5-KO cells were subcutaneously injected into the dorsal flanks of 8 week-old nude mice, which were obtained from the Jackson Laboratory (Bar Harbor, Me., USA). When the tumors were visible (approximately 30 mm^3 in volume), the mice received respective gemcitabine treatments via intraperitoneal (i.p.) injection. After weekly monitoring, time to appearance of the tumor was recorded, and the tumor volume was measured by caliper. The tumor volume was calculated as follows: volume=longest tumor diameter×(shortest tumor diameter) 2/2. After 35 days of treatment, the mice were euthanized by CO2 inhalation, and the tumor tissues were collected for further analyses. […] Initially, we tested whether tumors formed by WT and PRMT5 KO cells were differentially sensitive to Gem treatment. To be able to better compare the tumors from these two genetic backgrounds, we injected 5×10^5 WT mPanc96 cells in the left flank and the same number of the PRMT5 KO cells in the right flank of the same mouse. This strategy enabled us to compare the two tumors grown in the same mouse. After one week of tumor formation, the mice were randomly divided into three groups where one received control, and the other two received two separate Gem doses (50 mg/kg or 100 mg/kg).

Pancreatic cancer cells = assay: BrdU incorporation flow cytometry cell cycle analysis; format: cell-based, Human; conditions: Gem 250 nM
Description: Pancreatic cancer cells were treated with gemcitabine and EPZ015666 or EPZ015938, incorporated with BrdU (Sigma) for 1 hour and then fixed by 70% ethanol. BrdU staining was performed according to the manufacturer's instructions (BD Biosciences, Franklin Lakes, N.J., USA). Briefly, the fixed cells were washed with PBS and then resuspended in 2 N HCl for 20 min to denature the DNA. After washing with 0.1 M Na2B4O7, pH 8.5, to stop acid denaturation, the cells were resuspended and washed with 180 μL 0.5% polysorbate 20 (Sigma) with 1% normal goat serum (NGS) (Dako, Glostrup, Denmark) in PBS. Then, the cells were incubated with Alexa Fluor 647-conjugated anti-BrdU (mAb) (Invitrogen) for 1 hour at room temperature in the dark. After washing with PBS, the cells were resuspended in 2 μg/mL propidium iodide (PI) (Sigma) in PBS plus RNase, incubated at 37° C. for 30 min in the dark, and then analyzed by FACSCalibur flow cytometer (Becton-Dickinson, San Jose, Calif., USA).

[3] = test system: WT and PRMT5 knockout (KO) PDAC cells (mPanc96, PANC-1); assay: MTT cell viability assay, WT vs PRMT5 KO clones; format: cell-based; conditions: Homo sapiens
Description: PDX366, mPanc96, and PANC-1 cells were seeded in a flat-bottom 96-well plate (Corning) in triplicate at a density of 1-2×10^3 cells per well. The following day, cells were treated with gemcitabine (GEMZAR; Eli Lilly) and EPZ015666 (GSK3235025; SelleckChem) or EPZ015938 (GSK3326595; ChemieTek) for 4-5 days prior to MTT (3-(4,5-dimethylthiazolyl)-2,5-diphenyltetrazolium bromide) to determine effects of drugs on cell viability. Culture media were replaced with fresh RPMI, which had 10% FBS and 10% MTT (5 mg/mL) and incubated for 4 hours in a humidified (37° C., 5% CO2) incubator. 100 μL MTT solvent (10% SDS in 0.01 M HCl) was added to each well, and cells were incubated overnight. The absorbance was read at 595 nm.
To better study the role of PRMT5 in the cellular response to Gem, we generated multiple single KO clones in two additional pancreatic cancer cell lines (mPanc96 and PANC-1) (FIG. 2A). […] However, the clones with even partial PRMT5 depletion were nearly an order of magnitude more sensitive to Gem compared to wild-type (WT) clones (4-5 μM vs. ˜50 μM IC50) as measured by cell viability assay (FIG. 2B).

mPanc96 cells [4] = assay: γ-H2AX immunofluorescence staining; format: cell-based, Human
Description: Cells grown on glass coverslips (VWR) were rinsed with PBS, and then fixed in 4% formaldehyde for 15 min. The cells were subsequently treated with 0.2% Triton X-100 in PBS for 10 min. After blocking with 2% BSA in PBS containing 5% FBS at RT for 30 minutes, cells were incubated with an appropriate primary antibody γ-H2AX (Cell Signaling) for 2 hours. Then the cells were washed with PBS and incubated for 1 hour with secondary antibody [Alexa Fluor-488 goat anti-mouse immunoglobulin G (IgG) (H+L) conjugate or anti-rabbit IgG (H+L) conjugate (Invitrogen)]. After washing with PBS, the coverslips were dried, and then reversely covered onto slides (Fisher Scientific) by adding mounting medium with 4′,6-diamidino-2-phenylindole dihydrochloride (DAPI) (Vector Laboratories). A LSM-710 confocal microscope (Zeiss) was used to obtain fluorescence images.

Row | SMILES | HDR activity (HeLa DR13-9 cell line) | overall SDMA levels in tumors (xenograft tumors; Western blot of tumor tissues) | apoptosis (caspase-3 cleavage) (WT and PRMT5 KO cells) | NHEJ activity (NHEJ/DsRed293B cell line) | global SDMA (PRMT5) | growth inhibition activity on colony formation (mPanc96 and PANC-1 cells; single agent, compared with the other PRMT5 inhibitor) | sensitivity to Gem in longer-term colony formation (mPanc96 and PANC-1 cells; PRMT5 KO clones compared to WT cells) | comet tail length (mPanc96 cells [1]) | γ-H2AX staining (IHC) in tumors (xenograft tumors; PRMT5 KO tumors vs WT tumors treated with Gem) | γ-H2AX in tumors (xenograft tumors; Western blot, PRMT5 KO tumors) | phospho-Chk1, γ-H2AX and phospho-RPA2 activation (PDAC cells) | tumor volume ([2]; PRMT5 KO tumors) | tumor volume ([2]; WT tumors) | cell cycle position (Pancreatic cancer cells; PRMT5 KO cells compared to WT cells) | cell cycle position (Pancreatic cancer cells; WT cells, EPZ015666 500 nM) | pIC50 ([3]; clones with even partial PRMT5 depletion (PRMT5 KO)) | pIC50 ([3]; wild-type (WT) clones) | time to strong γ-H2AX foci post Gem treatment (mPanc96 cells [4]; PRMT5 KO cells, Gem 250 nM) [h] | time to similar levels of γ-H2AX foci (mPanc96 cells [4]; WT cells, same concentration of Gem) [h] | γ-H2AX foci formation levels (mPanc96 cells [4]; over 72 hours, PRMT5 KO vs WT cells, Gem treatment)
1 | O=C(NC[C@H](O)CN1CCc2ccccc2C1)c1cc(NC2COC2)ncn1 [EPZ015666] | significantly inhibits the HDR activity | lower overall levels of SDMA | significant apoptosis (caspase-3 cleavage) selectively in WT cells but not in PRMT KO cells | significant increase in NHEJ activity | significantly inhibits global SDMA |  |  |  |  |  |  |  |  |  |  |  |  |  |  | 
2 | CC(=O)N1CCC(Nc2cc(C(=O)NC[C@H](O)CN3CCc4ccccc4C3)ncn2)CC1 [EPZ015938] |  |  |  |  |  | substantially more growth inhibition activity |  |  |  |  |  |  |  |  |  |  |  |  |  | 
3 | Nc1ccn([C@@H]2O[C@H](CO)[C@@H](O)C2(F)F)c(=O)n1 [Gem, 2′,2′-difluoro 2′-deoxycytidine] | significantly inhibits the HDR activity |  |  | significant increase in NHEJ activity |  |  | significantly more sensitive | significantly longer comet tail | significantly more γ-H2AX staining | significantly activated | sustained and stronger | most significant reduction of tumor volumes | notable reduction of WT tumors | significantly higher number of G2/M cells | partial delay in cell cycle with a substantial accumulation of cells in S-phase and partial increases in G2/M cells | 5.30 to 5.40 | ~4.30 | 4 | 48 to 72 | significantly higher levels of γ-H2AX

— patent US20220168329A1, “COMBINATORIAL DRUG TREATMENT OF CANCER” (University of Virginia Patent Foundation, priority 2019, published 2022)
